Compound in assay [1]: COc1cc2c(Oc3ccc(NC(=O)C4(C(=O)Nc5ccc(F)cc5)CC4)cc3F)ccnc2cc1OCCCN1CCOCC1 [Foretinib] (anchor plate)
Briefly: relative viability (nuclei count vs DMSO), 5 days (fraction); higher = more cells survive. As to conditions: 0.25 µM. The essentials:
(§1)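 Five library-drug doses, separated by factors of √10, were pinned into 1536-well plates holding lung cancer cell lines after an overnight stay at 37 °C. Cells were fixed, permeabilised and Hoechst-stained in one step after 5 days without medium change, then imaged at 4×. Viability compares treated-well with vehicle-well nuclei, counted in MetaXpress, as a median across plates. Passing plates had control CV below 25% and at least one doubling.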

Compound in assay [2]: O=S(=O)(c1ccccc1)N(CC(F)(F)F)c1ccc(C(O)(C(F)(F)F)C(F)(F)F)cc1
The description is as above. A digest of the protocol: as §1

The record followed here is the supplement of paper PMC10307832.

Consider UMC-11, for which the relative viability in assay [1] was 1.03; in assay [2] (0.8 µM), 1.06; in assay [2] (2.53 µM), 0.985; in assay [2] (8 µM), 1.11.
